Key:
[1] = molecular target: T1, NLuc (NanoLuc) (Oplophorus gracilirostris, UniProt Q9GV45, A31E/Q38R/Q45L/L54V/A60N/K70R/V71I/A81I/F95D/L99Q/M102K/I117V/P142E/Q151K/Y165I/N193R); test: bioluminescence spectra, COS-7 lysate; format: biochemical; conditions: substrate solution […] in PBS
T1 construct: engineered NanoLuc variant of the 19 kDa subunit, expressed from pcDNA3.1(+) in COS-7, mostly cytosolic

[2] = molecular target: T1, NLuc (NanoLuc); test: bioluminescence imaging and spectra, COS-7; format: cell-based; conditions: live cells and lysate; […] substrate in PBS
[3] = molecular target: T2, LSSmNep-GR5GS-NLuc (GR HLBD) (Homo sapiens, UniProt P04150); test: NIR-BRET, COS-7 stably expressing single-chain probe; format: cell-based; conditions: live cells stimulated […] h; DBlueC substrate; […] nm filter
T2 construct: gene NR3C1; stably expressed in COS-7
T2 sequence (P04150 486-777): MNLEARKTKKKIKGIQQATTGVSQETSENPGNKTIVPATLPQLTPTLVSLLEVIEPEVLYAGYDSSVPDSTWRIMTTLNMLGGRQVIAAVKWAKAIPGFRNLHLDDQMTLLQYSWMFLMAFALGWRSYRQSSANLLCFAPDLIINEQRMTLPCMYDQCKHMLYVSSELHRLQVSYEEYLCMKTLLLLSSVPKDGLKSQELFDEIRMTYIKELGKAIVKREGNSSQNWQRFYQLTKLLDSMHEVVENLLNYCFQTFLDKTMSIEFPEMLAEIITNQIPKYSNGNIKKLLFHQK

T1 sequence (Q9GV45 28-196 with the stated changes): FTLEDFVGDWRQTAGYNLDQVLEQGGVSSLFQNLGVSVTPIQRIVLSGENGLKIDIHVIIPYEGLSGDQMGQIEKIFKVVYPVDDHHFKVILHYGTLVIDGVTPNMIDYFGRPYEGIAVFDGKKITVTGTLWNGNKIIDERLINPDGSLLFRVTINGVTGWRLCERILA

Oc1ccc(Cc2nc3c(Cc4ccccc4)nc(-c4ccc(O)cc4)cn3c2O)cc1 [nCTZ, native coelenterazine]
bioluminescence spectra, COS-7 lysate [1]: The nCTZ was commonly bright among all the tested marine luciferases

Oc1c(Cc2ccccc2)nc2c(Cc3ccccc3)nc(-c3ccccc3)cn12 [DBlueC, DeepBlueC]
bioluminescence imaging and spectra, COS-7 [2]: DBlueC and nCTZ were exclusively bright with NLuc and ALuc47, respectively

C[C@]12CCC(=O)C=C1CC[C@@H]1[C@@H]2[C@@H](O)C[C@@]2(C)[C@H]1CC[C@]2(O)C(=O)CO [cortisol]
fold NIR-BRET intensity at 10^-6 M [3]: 1.3 fold
